Measurements taken from paper PMC8955829, “Drug Discovery of New Anti-Inflammatory Compounds by Targeting Cyclooxygenases” (Pharmaceuticals, 2022).
Where “and” joins values, the source holds several entries; their conditions need not be identical. Equal values may be shown once.

Columns and labels:
[1] = test system: carrageenan-induced rat paw edema; test: Carrageenan-induced paw edema in rats; format: in vivo; conditions: 10 mg/kg orally; for rat paw edema size: evaluated for 5 h, Figure 3; for rat paw edema: after 1 h of dosing
Description: The carrageenan-induced paw edema model was used to evaluate the compounds’ anti-inflammatory activity. Only carrageenan was given to the control animals. The treatment effect was tracked by observing the improvement of rat paw edema in response to drug administration. Carrageenan injections caused rat paws to grow from 0.3 cm to 0.8 cm in size.
Following in vitro testing, three compounds with the highest selectivity against COX-2 were chosen for in vivo investigations utilizing the rat paw edema assay. After subcutaneous carrageenan injection into the rodent’s paw, plasma extravasation, tissue proliferation, plasma protein release, and neutrophilic extravasation, all of which are caused by arachidonic acid digestion, produced inflammation. Following the carrageenan infusion, the main phase lasted 2 h. The following process is remodeling, which takes 5 h and begins at the 3rd h. The main stage is distinguished by the appearance of histamine and serotonin. The development of prostaglandins, proteases, and lysosomes causes the second stage of edema. Adult male albino rats weighing 120–150 g were divided into seven groups, each with seven rats, and kept at 25 °C with a 12-h light/dark cycle. Subplantar injection of 0.2 mL of 1% carrageenan solution in 0.9 percent saline into the right hind paw of rats was used to induce swelling and inflammation. To determine the inflammation generated by carrageenan, the Vernier Caliper was used to measure the thickness of rat paws before and after injection. […] Paw edema was measured at 0, 0.5, 1, 2, 3, 4, and 5 h after the drug was administered. The edema inhibition was calculated by calculating the difference in thicknesses between the treated and control groups.

[2] = test system: Raw264.7 cells; test: In vitro cytotoxicity, WST-1 assay; format: cell-based, mouse; conditions: 1 µM, 24 h, presence or absence of LPS (1 ug/mL)
Experimental: Raw264.7 cells were used to test the effects of compounds 1, 2, and 3 on cell viability and proliferation. Raw264.7 cells were treated for 24 h in a 96-well plate with compounds (1 µM) in the presence or absence of LPS (1 ug/mL). WST1 reagent was added to each well after treatment and incubated for an additional 2 h. Following that, the OD450/620 ratio was determined. […] However, all compounds had no effect on WST1 values or cell morphology in Raw264.7 cells. Raw264.7 cells in a 96-well plate were treated with our compounds (1 uM) in the presence or absence of LPS (1 ug/mL) for 24 h. After treatment, the WST1 reagent was added into each well and incubated for an additional 2 h. After that, OD450/620 was measured.
Dulbecco’s modified Eagle’s minimum essential medium containing 5% heat-inactivated fetal bovine serum was used to maintain Raw264.7 cells (ATCC). Raw264.7 cells ([…]) in a 96-well plate were treated for 24 h with the indicated compounds at 1 µM or vehicle (DMSO) in the presence or absence of LPS (1 µg/mL) to detect cell viability based on mitochondrial activity. WST-1 solution (Dojindo) was then added to each well and incubated at 37 °C for an additional 2 h. According to a previous study, cell viability was determined using the difference in absorbance at 450 and 620 nm as an indicator [37].

[3] = test system: rat paw; test: Histopathological examination of rat paw (H&E, Masson's trichrome); format: in vivo; conditions: carrageenan-treated rats
Experimental: The rats’ paws were collected and washed in a saline solution after the end of rat paw experiment. Specimens were fixed in 10% natural formalin for 2 days before being washed overnight with running water. The cleaned samples were dehydrated in ethyl alcohol at increasing percentages, starting with 70% and ending with absolute alcohol. The samples were cleaned by immersing them in xylol for 2 h. For 3 h at 37 °C, the cleared samples were placed in a sealed jar containing 50% paraffin in xylol. The samples were then soaked in melting paraffin for 2 h at 48 °C before being blocked in hard paraffin and sliced into 5-micron slices. The sections were stained with hematoxylin and eosin (H&E) and Masson’s trichrome. Sections were mounted with Canada balsam and covered with a coverslip in preparation for histological examination.

[4] = test system: rat stomach; test: Histopathological examination of rat stomach / ulcerogenic effect; format: in vivo; conditions: single dose 20 mg/kg orally
Experimental: Compounds 1–3 were examined for ulcerogenic effects in the rat stomach after showing anti-inflammatory advantages in a rat paw test. Rats were deprived for 24 h at 25 °C with a 12 h light/dark cycle. Indomethacin was used as a control. All compounds were given in a single dose of 20 mg/kg orally. After 24 h, the rats were slaughtered, and their stomachs were removed and washed with normal saline. Binocular magnification was used to inspect each group’s stomachs for the existence of a gastric lesion on the mucosa. Following that, the stomachs were kept in 10% w/v formalin for histological investigation, as previously described.

[5] = molecular target: T1, COX-2 (Homo sapiens, UniProt P35354); test: COX-2 inhibitor screening assay kit (Cayman); format: biochemical; conditions: for IC50: three separate experiments
T1 construct: purchased Cayman Chemical (Ann Arbor, MI, USA)
T1 sequence (P35354 18-604): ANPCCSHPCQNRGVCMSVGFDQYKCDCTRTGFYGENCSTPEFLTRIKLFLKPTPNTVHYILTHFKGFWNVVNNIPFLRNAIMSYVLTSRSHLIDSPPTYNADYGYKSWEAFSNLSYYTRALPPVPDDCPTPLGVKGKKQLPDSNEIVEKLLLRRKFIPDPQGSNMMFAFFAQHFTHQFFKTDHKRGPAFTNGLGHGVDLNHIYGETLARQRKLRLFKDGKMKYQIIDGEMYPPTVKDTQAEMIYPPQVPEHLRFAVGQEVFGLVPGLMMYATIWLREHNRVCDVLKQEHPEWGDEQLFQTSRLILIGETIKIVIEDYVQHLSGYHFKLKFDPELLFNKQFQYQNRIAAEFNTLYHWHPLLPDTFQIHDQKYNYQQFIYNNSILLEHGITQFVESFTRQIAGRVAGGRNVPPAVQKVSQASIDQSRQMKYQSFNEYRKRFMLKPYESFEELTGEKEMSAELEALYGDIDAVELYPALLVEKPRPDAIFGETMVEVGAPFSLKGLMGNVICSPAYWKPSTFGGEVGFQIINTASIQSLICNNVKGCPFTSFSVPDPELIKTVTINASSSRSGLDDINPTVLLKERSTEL
Experimental: The test chemicals’ capacity to inhibit the conversion of arachidonic acid to prostaglandin was determined. In test tubes, 25 mM Tris–HCl, pH 8.0, containing 5 mM EDTA, phenol, and 1 mM hematin, was added. The test compounds were dissolved in dimethyl sulfoxide and added in concentrations ranging from 0.005–200 µM. Dimethyl sulfoxide alone was applied to control test containers. COX-1 or COX-2 enzymes were added to test tubes and preincubated for 10 min at 37 °C. The arachidonic acid substrate was added, and the tubes were incubated at 37 °C for 2 min. The compound immunochemical assay was used to calculate the amount of prostaglandin produced. Three separate experiments were used to calculate the IC50 values. The selectivity index was calculated as follows:(1) Selectivity index=IC50COX−1/IC50COX−2

Structure (SMILES) | rat paw edema size [1] | effect on WST1 values (cell viability) and cell morphology [2] | rat paw histopathology, H&E: edema and inflammatory cell infiltration [3] | rat paw collagen deposition, Masson's Trichrome stain ([3]; 10× magnification) | rat paw histopathology, H&E ([3]; 10× magnification) | rat paw histopathology, H&E ([3]; 40× magnification) | rat stomach collagen deposition, Masson's Trichrome ([4]; 10× magnification) | rat stomach histopathology, H&E ([4]; 10× magnification) | rat stomach collagen deposition, Masson's Trichrome ([4]; 40× magnification) | rat stomach histopathology, H&E ([4]; 40× magnification) | rat paw collagen deposition, Masson's stain [3] | SI (selectivity index = IC50 COX-1/IC50 COX-2) [5] | IC50 [5] | rat stomach collagen deposition, Masson's Trichrome [4] | rat paw edema [1]
Cc1cccc2[nH]c(C3CCCN(C(=O)c4ccccc4NCC(=O)O)C3)nc12 (stereo not drawn) [Compound 1, [(2-{[3-(4-methyl-1H-benzimidazol-2-yl)piperidin-1-yl]carbonyl}phenyl)amino]acetic acid] | significantly reduced rat paw size | non-cytotoxic | marked improvement in the degree of edema and the inflammatory cell infiltration | slight collagen deposition | significant decrease in the dermal thickness, inflammatory reaction in the deep dermis (black star), and moderate improvements in edema | slight inflammatory reaction (black star) and edema | normal collagen deposition | normal gastric layers | normal collagen deposition | absence of any signs of an inflammatory reaction |  |  |  |  | 
CCOC(=O)c1cn(-c2cc(C#N)ccc2O)cc(Oc2ccccc2)c1=O [Compound 2, ethyl 1-(5-cyano-2-hydroxyphenyl)-4-oxo-5-phenoxy-1,4-dihydropyridine-3-carboxylate] | significantly reduced rat paw size | non-cytotoxic | marked anti-inflammatory effect and a pronounced decline in edema and inflammatory cell invasion | slight collagen deposition | substantial decrease in both the inflammatory reaction (black star) and edema | slight inflammatory reaction (black star) and edema | slight collagen deposition | normal gastric layers | slight collagen deposition | absence of any signs of an inflammatory reaction | lowest |  |  |  | 
O=C(O)[C@H]1C[C@@H](C(=O)NC2CC2)CN(C(=O)c2ccc3[nH]nnc3c2)C1 [Compound 3] | significantly reduced rat paw size |  | weaker action than compounds 1 and 2 manifested by a moderate increase in cell infiltration and edema | significant collagen deposition | significant decrease in the degree of inflammatory reaction (black star) and a moderate decrease in edema | moderate inflammatory reaction (black star) and edema | significant collagen deposition | slight degeneration of gastric layers | significant collagen deposition | absence of any signs of an inflammatory reaction |  | 194.9 and 194.91 | 0.06 ± 0.003 µM | mild increase in collagen deposition | 
COc1ccc(CN(Cc2ccc(F)cc2)CC2CCCO2)cc1CO (stereo not drawn) [Compound 4] |  |  |  |  |  |  |  |  |  |  |  | 36.3 | 0.21 ± 0.01 µM |  | 
COc1cccc(-c2nn(-c3ccccc3)cc2CN(C)CCc2cn[nH]c2)c1 [Compound 5] |  |  |  |  |  |  |  |  |  |  |  | 132.64 | 0.08 ± 0.009 µM |  | 
O=C(O)CC1COCCN1Cc1cccc(-c2ccccn2)c1 (stereo not drawn) [Compound 6] |  |  |  |  |  |  |  |  |  |  |  | 190.88 | 0.06 ± 0.075 µM |  | 
O=C(O)COc1ccc(Cl)cc1C1CC(=O)Nc2cc3[nH]ncc3cc21 (stereo not drawn) [Compound 7] |  |  |  |  |  |  |  |  |  |  |  | 95.068 | 0.097 ± 0.015 µM |  | 
O=C(O)Cc1ccccc1Nc1c(Cl)cccc1Cl [Diclofenac, reference compound] |  |  |  |  |  |  |  |  |  |  |  |  |  |  | dramatically reduced rat paw edema
COc1ccc2c(c1)c(CC(=O)O)c(C)n2C(=O)c1ccc(Cl)cc1 [Indomethacin, reference compound] |  |  |  | slight collagen deposition | significant decrease in the degree of inflammatory reaction (black star) and a moderate decrease in edema | slight inflammatory reaction (black star) and edema | significant collagen deposition | slight degeneration of gastric layers | collagen deposition | absence of any signs of an inflammatory reaction |  |  |  | mild increase in collagen deposition | dramatically reduced rat paw edema
